One test has as its target T1, FAK (Homo sapiens, UniProt Q05397).
T1 construct: endogenous in cells; host or cells: MDA-231-LNA
The experiment in a line: P397Y-FAK Inhibition MSD Platform Cellular Biomarker Assay. As to conditions: MDA-231-LNA cells, treated for 1 hour; pFAK-397 levels. Format: cell-based.

The next test has as its target T2, VEGFR2 (Homo sapiens, UniProt P35968).
T2 construct: host or cells: HUVEC
Put plainly: VEGFR2 Phospho ELISA Assay. Format: cell-based. As to conditions: HUVEC, treated for 1 hour, VEGF stimulated; phospho VEGFR2 relative to Total VEGFR2. (In an ELISA, binding on a coated surface is turned into a signal by an enzyme label.)

Test [1] deals with VEGFR3 cytoplasmic domain (Homo sapiens, UniProt P35916). The experiment in a line: VEGFR3 Biochemical Assay (AlphaScreen). Particulars: GST-fusion enzyme, 500 μM ATP, 90 minutes at 30 degree Celsius (modified form in some cases: Hexa-His-fusion enzyme, 1 μM ATP); read-out: IC50.
The target in another test is VEGFR3 (Homo sapiens, UniProt P35916). The experiment in a line: VEGFR3 Phospho ELISA Assay. It counts as cell-based. As to conditions: HMVEC-dLyAD cells, treated for 1 hour, VEGFC stimulated; phospho VEGFR3 relative to Total VEGFR3.

Each structure is given as a SMILES string. Where only a bound is given, the exact number is not on record here.

From US20160009686A1, “VEGFR3 INHIBITORS” (CANCER THERAPEUTICS CRC PTY LIMITED, priority 2012, published 2016) come the findings set out here.

As a reminder, the IC50 is the point on the concentration scale where inhibition reaches its midpoint.

Chain of VEGFR3 cytoplasmic domain (P35916 798-1298 isoform P35916-1): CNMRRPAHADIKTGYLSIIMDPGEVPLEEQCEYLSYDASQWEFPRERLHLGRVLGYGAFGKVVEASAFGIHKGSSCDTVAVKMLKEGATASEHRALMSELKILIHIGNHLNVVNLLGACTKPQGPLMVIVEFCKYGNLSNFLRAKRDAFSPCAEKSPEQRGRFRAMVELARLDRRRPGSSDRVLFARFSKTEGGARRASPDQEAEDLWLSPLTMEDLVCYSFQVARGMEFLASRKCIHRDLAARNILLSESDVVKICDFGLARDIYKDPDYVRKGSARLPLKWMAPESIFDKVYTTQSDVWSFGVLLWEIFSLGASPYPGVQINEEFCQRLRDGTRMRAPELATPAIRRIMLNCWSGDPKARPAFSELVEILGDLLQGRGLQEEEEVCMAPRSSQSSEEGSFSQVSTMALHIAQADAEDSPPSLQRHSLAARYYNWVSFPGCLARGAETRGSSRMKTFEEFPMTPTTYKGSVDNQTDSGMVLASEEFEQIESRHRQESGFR
Chain of VEGFR3 (P35916 25-1363): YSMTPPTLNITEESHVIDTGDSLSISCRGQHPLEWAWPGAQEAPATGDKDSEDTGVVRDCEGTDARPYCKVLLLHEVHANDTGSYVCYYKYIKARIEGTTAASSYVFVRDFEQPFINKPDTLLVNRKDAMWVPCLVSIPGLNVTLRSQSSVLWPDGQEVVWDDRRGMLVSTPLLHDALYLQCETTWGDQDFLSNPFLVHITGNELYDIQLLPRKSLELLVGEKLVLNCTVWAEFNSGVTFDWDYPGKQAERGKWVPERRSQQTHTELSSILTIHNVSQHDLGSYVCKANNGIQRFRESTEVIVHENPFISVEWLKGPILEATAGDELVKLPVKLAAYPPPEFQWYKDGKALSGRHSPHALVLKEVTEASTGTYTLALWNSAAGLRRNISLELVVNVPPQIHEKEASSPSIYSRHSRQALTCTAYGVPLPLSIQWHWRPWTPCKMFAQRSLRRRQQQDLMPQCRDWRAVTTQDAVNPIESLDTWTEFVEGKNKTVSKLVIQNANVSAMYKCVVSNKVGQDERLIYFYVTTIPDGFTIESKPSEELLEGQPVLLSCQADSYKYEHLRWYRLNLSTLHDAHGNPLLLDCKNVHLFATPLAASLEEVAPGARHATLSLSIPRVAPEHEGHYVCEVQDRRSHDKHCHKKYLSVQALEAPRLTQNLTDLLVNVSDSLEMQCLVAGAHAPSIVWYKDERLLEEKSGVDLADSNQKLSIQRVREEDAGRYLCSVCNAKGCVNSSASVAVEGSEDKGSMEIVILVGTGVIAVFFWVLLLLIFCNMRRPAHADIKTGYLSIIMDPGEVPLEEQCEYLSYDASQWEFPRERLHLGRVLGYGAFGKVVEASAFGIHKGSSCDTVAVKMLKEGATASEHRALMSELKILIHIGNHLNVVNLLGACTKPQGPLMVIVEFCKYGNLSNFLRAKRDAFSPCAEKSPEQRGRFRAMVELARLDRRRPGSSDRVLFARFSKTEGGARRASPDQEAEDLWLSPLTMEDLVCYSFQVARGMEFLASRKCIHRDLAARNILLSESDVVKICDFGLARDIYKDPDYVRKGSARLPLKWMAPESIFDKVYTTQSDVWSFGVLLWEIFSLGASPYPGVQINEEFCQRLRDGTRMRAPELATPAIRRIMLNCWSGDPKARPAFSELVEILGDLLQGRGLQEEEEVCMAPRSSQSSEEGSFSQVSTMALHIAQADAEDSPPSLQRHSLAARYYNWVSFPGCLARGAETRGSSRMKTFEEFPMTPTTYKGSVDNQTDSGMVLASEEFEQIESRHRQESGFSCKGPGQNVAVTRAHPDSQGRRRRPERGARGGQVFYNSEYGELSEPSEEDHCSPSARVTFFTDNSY
T2 sequence (P35968 20-1356): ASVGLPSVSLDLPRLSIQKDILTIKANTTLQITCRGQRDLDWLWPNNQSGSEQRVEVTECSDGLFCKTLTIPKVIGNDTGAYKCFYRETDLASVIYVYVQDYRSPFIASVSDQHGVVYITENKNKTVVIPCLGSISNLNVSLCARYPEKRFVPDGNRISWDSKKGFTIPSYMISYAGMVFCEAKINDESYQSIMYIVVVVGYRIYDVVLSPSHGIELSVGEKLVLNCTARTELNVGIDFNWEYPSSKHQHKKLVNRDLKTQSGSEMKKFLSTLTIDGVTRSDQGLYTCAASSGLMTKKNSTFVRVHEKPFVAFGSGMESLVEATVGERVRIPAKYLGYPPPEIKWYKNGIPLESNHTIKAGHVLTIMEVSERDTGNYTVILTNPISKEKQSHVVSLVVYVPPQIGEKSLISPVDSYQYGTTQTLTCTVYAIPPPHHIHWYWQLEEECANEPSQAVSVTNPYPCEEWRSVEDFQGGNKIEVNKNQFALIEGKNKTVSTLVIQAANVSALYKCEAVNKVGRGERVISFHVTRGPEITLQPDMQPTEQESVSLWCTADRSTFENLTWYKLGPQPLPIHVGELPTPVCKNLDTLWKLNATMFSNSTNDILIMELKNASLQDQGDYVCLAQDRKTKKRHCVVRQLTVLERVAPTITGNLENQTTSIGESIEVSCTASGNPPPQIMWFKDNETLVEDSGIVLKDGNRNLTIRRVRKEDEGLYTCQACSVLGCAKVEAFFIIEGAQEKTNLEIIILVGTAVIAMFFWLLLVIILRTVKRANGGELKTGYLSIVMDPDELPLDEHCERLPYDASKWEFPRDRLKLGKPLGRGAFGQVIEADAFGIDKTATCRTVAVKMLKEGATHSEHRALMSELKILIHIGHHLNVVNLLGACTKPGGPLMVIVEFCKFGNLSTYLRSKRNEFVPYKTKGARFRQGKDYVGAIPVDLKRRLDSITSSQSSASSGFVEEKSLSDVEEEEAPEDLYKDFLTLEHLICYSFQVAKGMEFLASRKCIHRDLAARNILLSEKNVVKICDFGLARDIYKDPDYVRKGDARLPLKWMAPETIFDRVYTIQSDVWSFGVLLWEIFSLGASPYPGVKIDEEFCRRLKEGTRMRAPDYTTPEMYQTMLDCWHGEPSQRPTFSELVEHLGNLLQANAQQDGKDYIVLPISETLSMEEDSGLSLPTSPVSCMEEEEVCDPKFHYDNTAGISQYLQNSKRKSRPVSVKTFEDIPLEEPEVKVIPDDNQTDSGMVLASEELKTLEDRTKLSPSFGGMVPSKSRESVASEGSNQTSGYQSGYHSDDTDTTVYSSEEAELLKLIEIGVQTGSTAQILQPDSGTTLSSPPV
T1 sequence (Q05397 whole entry): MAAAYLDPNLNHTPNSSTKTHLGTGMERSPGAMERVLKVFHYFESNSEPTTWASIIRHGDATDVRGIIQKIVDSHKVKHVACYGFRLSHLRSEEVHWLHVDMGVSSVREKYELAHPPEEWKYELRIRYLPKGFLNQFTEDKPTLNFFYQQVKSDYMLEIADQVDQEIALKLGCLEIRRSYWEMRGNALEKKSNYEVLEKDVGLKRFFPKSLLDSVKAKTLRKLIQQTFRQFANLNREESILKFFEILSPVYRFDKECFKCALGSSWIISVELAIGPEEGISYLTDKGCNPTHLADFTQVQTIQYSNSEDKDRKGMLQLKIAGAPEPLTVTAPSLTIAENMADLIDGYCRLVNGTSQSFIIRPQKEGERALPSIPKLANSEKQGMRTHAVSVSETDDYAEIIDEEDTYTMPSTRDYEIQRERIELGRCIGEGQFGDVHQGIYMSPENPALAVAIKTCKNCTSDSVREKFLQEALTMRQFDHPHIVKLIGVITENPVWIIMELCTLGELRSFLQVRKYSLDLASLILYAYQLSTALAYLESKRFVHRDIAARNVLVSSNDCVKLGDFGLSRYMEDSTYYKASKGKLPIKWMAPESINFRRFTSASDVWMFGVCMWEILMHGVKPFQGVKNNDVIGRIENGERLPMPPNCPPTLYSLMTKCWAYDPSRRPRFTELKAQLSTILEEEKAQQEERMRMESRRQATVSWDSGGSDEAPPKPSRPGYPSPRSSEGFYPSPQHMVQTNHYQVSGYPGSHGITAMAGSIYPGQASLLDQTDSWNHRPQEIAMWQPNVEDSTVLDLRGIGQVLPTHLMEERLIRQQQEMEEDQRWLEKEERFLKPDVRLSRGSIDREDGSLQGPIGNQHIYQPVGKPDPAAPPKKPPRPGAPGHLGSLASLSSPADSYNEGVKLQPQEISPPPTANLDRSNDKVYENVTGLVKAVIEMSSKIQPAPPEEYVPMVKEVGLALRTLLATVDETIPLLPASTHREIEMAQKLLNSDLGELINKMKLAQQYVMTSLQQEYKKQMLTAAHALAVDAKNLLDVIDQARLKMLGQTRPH
Experimental for FAK: 96-well plates (cat#MA6000, Meso Scale Discovery) are coated with 30 μL/well of mouse monoclonal FAK antibody [63D5] (cat#ab72140, Abcam) pre-diluted in PBS to a concentration of 1 mg/mL. The plates are sealed with adhesive film and incubated for 16 hours at 4° C. The antibody is then flicked out of the plates and 150 μL of 3% [w/v] Blocker A (cat#R93AA-1, Meso Scale Discovery) is added. The plates are resealed with adhesive film and incubated at room temperature on a shaker set at medium speed for 2 hours. The plates are then washed three times with a solution containing 50 mM Tris-HCl pH 7.5, 0.15 M NaCl and 0.02% Tween-20, before cell lysate addition described below.
On the day prior to compound treatment, 200 μL media containing 20,000 cells is seeded into all wells of white, clear-bottom, TC treated, pclear, 96-well microtitre plates (cat#655098, Greiner Bio-One), and the plates are incubated at 37° C. and 5% CO2 for 36 hours. 1 μL/well of compound is then added from dilution series prepared in DMSO. Negative control wells receive the same volume of DMSO without compounds, and positive control wells receive 2 μM of a control compound in the same volume of DMSO. Cells are treated for 1 hour at 37° C. and 5% CO2. The media/compounds are then flicked off and 55 μL/well of ice-cold complete lysis buffer is added. […] Plates are incubated on ice for 30 minutes, with 30 seconds high speed plate shaking every 5 minutes. 40 μL/well of cell lysate is transferred to the coated, blocked and washed 96-well microtitre plates described above. The 96-well plates are sealed with adhesive film and incubated for 16 hours at 4° C. The plates are then washed three times with a solution containing 50 mM Tris-HCl pH 7.5, 0.15 M NaCl and 0.02% Tween-20 and tapped dry. […] Plates are then washed three times with a solution containing 50 mM Tris-HCl pH 7.5, 0.15 M NaCl and 0.02% Tween-20 and tapped dry. 150 μL/well of Read Buffer T+Surfactant (cat#R92TC-1, Meso Scale Discovery) is then added, and pFAK-397 levels quantified using a Meso Scale Discovery SECTOR Imager 6000 instrument.
Experimental for VEGFR2: Adult human umbilical vein endothelial cells (HUVEC) (Cat# CC-2519, Lonza) were seeded into clear-bottom, TC treated 12 well plates (Cat #665180, Greiner Bio-One) in EGM-2 (Cat# CC-3162, Lonza) at 180,000 cells/well (volume 1 mL), and the plates incubated at 37° C. and 5% CO2 for 6 hours.
96 well Maxisorp immuno plates (Cat #439454, Nunc) were coated with 100 μL of Total VEGFR2 capture antibody (Part #841434, Human Total VEGFR2/FLT4 ELISA Kit, Cat # DYC1780, R&D Systems), or Phospho VEGFR2 Capture antibody (Part #841419, Human Phospho VEGFR2/FLT4 ELISA Kit, Cat# DYC1766, R&D Systems). The plates were covered and incubated at room temperature overnight.
The coating antibody was flicked out and the plates washed three times with Wash Buffer (Phosphate buffered saline (137 mM NaCl, 2.7 nM KCl, 8.1 nM Na2HPO4, 1.5 mL KH2PO4, pH 7.2-7.4), 0.05% Tween 20). 300 μL of Blocking buffer (1% v/v BSA (Cat# A8412, Sigma) in PBS) was then added to wells and plate incubated for 2 hours at room temperature. Blocking solution is flicked out and plates washed three times and tapped dry.
Compound dilution series were prepared in EBM-2 (Cat # CC-3156, Lonza)+0.1% BSA (Cat# A8412, Sigma) with constant 0.1% DMSO concentration. 427.5 μL of sample or vehicle control was added to the cell monolayers. Cells are treated for 1 hour at 37° C. and 5% CO2. 50 ng/mL Recombinant human VEGF (Cat #293-VC, R & D Systems) added to wells and plates incubated for an additional 10 minutes at 37° C. and 5% CO2.
The media and compounds were removed and the cell monolayer washed once in Dulbecco's Phosphate Buffered Saline (Cat #21600-044, Invitrogen). 130 μL of Lysis buffer added to wells and cell lysate harvested and transferred to tubes and stored on ice. Complete lysis buffer was prepared by adding 10 μL Protease Inhibitor Cocktail (Cat # P8340, Sigma-Aldrich), 10 μL PMSF (Phenylmethanesulfonyl fluoride, Cat # P7626, Sigma-Aldrich, prepared as 500 mM DMSO stock) per 1 mL of Phosphosafe™ Extraction Reagent (Cat #71296, Merck).
The plates were then washed three times in wash buffer as described above and tapped dry.
For detection of Total VEGFR2 100 μL of Detection antibody (Total VEGFR2 Detection Antibody Part#841435 in Total VEGFR2 kit) diluted in IC Diluent #14 (20 mM Tris, 137 mM CaCl2, 0.05% Tween20, 0.1% BSA) was added to wells and the plate incubated for 2 hours at room temperature. The plate was then washed three times in wash buffer and tapped dry. 100 μL of streptavidin-HPR diluted in IC diluent #14 Streptavidin-HRP, Part #890803 in Total VEGFR2 kit) was added to wells and incubated at room temperature for 20 minutes followed by washing as described above. 100 μL Substrate solution (3,3′,5,5′-Tetramethylbenzidine (TMB) Liquid Substrate System for ELISA, Cat # T0440, Sigma-Aldrich) was added and the plate incubated for 20 minutes in the dark at room temperature followed by the addition of 50 μL stop solution (2 M H2SO4).
Total VEGFR2 levels were quantified using a Multiskan Ascent plate reader and Ascent software fitted with 450 nm filter.
For detection of Phospho VEGFR2, 100 μL of Detection antibody (Anti-Phospho-Tyrosine-HRP Detection Antibody, Part #841403 in Phospho VEGFR2 kit) was diluted in IC Diluent 14 (20 mM Tris, 137 mM CaCl2, 0.05% Tween20, 0.1% BSA), was added to the wells and the plate incubated for 2 hours at room temperature. The plate was then washed three times in wash buffer as described above and tapped dry. 100 μL Substrate solution (3,3′,5,5′-Tetramethylbenzidine (TMB) Liquid Substrate System for ELISA, Cat # T0440, Sigma-Aldrich) was added and the plate incubated for 20 minutes in the dark at room temperature followed by the addition of 50 μL stop solution (2 M H2SO4).
Phospho VEGFR2 levels were quantified using a Multiscan ascent plate reader and ascent software fitted with 450 nm filter.
IC50 values are determined by first calculating the level of phospho VEGFR2 relative to Total VEGFR2 according to the following formula:

Take `CCC(C(N)=O)c1ccccc1CCc1nc(Nc2ccc(C3CCNCC3)cc2)ncc1C(F)(F)F` (racemic) [Compound 1, 2-(2-(2-(2-((4-(Piperidin-4-yl)phenyl)amino)-5-(trifluoromethyl)pyrimidin-4-yl)ethyl)phenyl)butanamide]: 1.18 µM corresponded to half-maximal inhibition against FAK (IC50).

For the compound `CC(C(N)=O)c1ccccc1CCc1nc(Nc2cnn(C3CCNCC3)c2)ncc1C(F)(F)F` (racemic) [Compound 56, 2-(2-(2-(2-((1-(piperidin-4-yl)-1H-pyrazol-4-yl)amino)-5-(trifluoromethyl)pyrimidin-4-yl)ethyl)phenyl)propanamide], the IC50 against FAK stood at 0.517 µM.

On to `NC(=O)C1(c2ccccc2CCc2nc(Nc3ccc(C4CNC4)cc3)ncc2C(F)(F)F)CC1` [Compound 4, 1-(2-(2-(2-((4-(azetidin-3-yl)phenyl)amino)-5-(trifluoromethyl)pyrimidin-4-yl)ethyl)phenyl)cyclopropanecarboxamide], for which the IC50 against VEGFR2 was 2.04 µM; at FAK, more than 2 µM.

As for `CN1CCC(n2cc(Nc3ncc(Cl)c(CCc4ccccc4C4(C(N)=O)CC4)n3)cn2)C1` (stereo not drawn) [Compound 21, 1-(2-(2-(5-Chloro-2-(1-(1-methylpyrrolidin-3-yl)-1H-pyrazol-4-ylamino)pyrimidin-4-yl)ethyl)phenyl)cyclopropanecarboxamide], the results for the IC50 (in test [1]; against VEGFR3; against VEGFR2) were 0.007 µM, 0.014 µM and 0.073 µM, respectively.

For the compound `CC(C(N)=O)c1ccccc1CCc1nc(Nc2cn[nH]c2)ncc1Cl` (stereo not drawn) [Compound 35, 2-(2-(2-(2-(1H-Pyrazol-4-ylamino)-5-chloropyrimidin-4-yl)ethyl)phenyl)propanamide], the half-maximal inhibitory concentration (IC50) turned out to be 0.009 µM in test [1], 0.064 µM at VEGFR3 and 3.79 µM at VEGFR2.

For the compound `CC(C(N)=O)c1ccccc1CCc1nc(Nc2cnn(C)c2)ncc1Cl` (stereo not drawn) [Compound 36, 2-(2-(2-(5-Chloro-2-(1-methyl-1H-pyrazol-4-ylamino)pyrimidin-4-yl)ethyl)phenyl) propanamide], the IC50 in test [1] turned out to be 0.016 µM; against VEGFR3, 0.076 µM; at VEGFR2, 8.17 µM.

In the case of `CC(C(N)=O)c1ccccc1CCc1nc(Nc2cnn(C3CCN(C)CC3)c2)ncc1Cl` (stereo not drawn) [Compound 44, 2-(2-(2-(5-Chloro-2-(1-(1-methylpiperidin-4-yl)-1H-pyrazol-4-ylamino)pyrimidin-4-yl)ethyl)phenyl)propanamide], the 50% inhibitory concentration (IC50) in test [1] amounted to 0.009 µM; at VEGFR3 it was 0.052 µM; against VEGFR2, 0.138 µM.

Consider `Cn1cc(Nc2ncc(Cl)c(CCc3ccccc3C(C)(C)C(N)=O)n2)cn1` [Compound 45, 2-(2-(2-(5-Chloro-2-((1-methyl-1H-pyrazol-4-yl)amino)pyrimidin-4-yl)ethyl)phenyl)-2-methylpropanamide], for which the half-inhibitory concentration (IC50) in test [1] was 0.003 µM; on VEGFR3 it was 0.023 µM; at VEGFR2, 0.37 µM.

With `CC(C(N)=O)c1ccccc1CCc1nc(Nc2cnn(C)c2)ncc1C(F)(F)F` (stereo not drawn) [Compound 55, 2-(2-(2-(2-((1-Methyl-1H-pyrazol-4-yl)amino)-5-(trifluoromethyl)pyrimidin-4-yl)ethyl)phenyl) propanamide], the IC50 in test [1] amounted to 0.015 µM; at FAK, 0.115 µM.

Consider `NC(=O)C1(c2ccccc2CCc2nc(Nc3ccc(C4CCNCC4)nc3)ncc2C(F)(F)F)CC1` [Compound 68, 1-(2-(2-(2-((6-(Piperidin-4-yl)pyridin-3-yl)amino)-5-(trifluoromethyl)pyrimidin-4-yl)ethyl)phenyl)cyclopropanecarboxamide], for which the IC50 turned out to be 0.028 µM in test [1], 0.051 µM against VEGFR3 and 4.08 µM at VEGFR2.
